From patent publication EP0363353B1, “FUSED BENZAZEPINES” (SCHERING CORPORATION, priority 1987, dated 1989)

Key:
[1] = molecular target: T1, dopamine D-1 receptor (Rattus norvegicus, UniProt P18901); assay: Competitive inhibition assay, displacement of 3H-SCH 23390; type: binding
T1 construct: Striatal tissue was excised, pooled, and homogenized; from tissue; host or cells: rat striatum (Sprague-Dawley), washed membrane pellet
Source text: (§1) A methodology for characterization of D-1 and D-2 receptor binding and an interpretation of the data are described by Billard et al., Life Sciences 35, 1885 (1984) in which the binding of the benzazepine (R)-(+)-8-chioro-2,3,4,5-tetrahydro-3-methyi-5-phenyi-1H-3-benzazepin-7-oi hemimaleate (SCH 23390) to the dopamine D-1 receptor is characterized. A selectivity for D-1 receptor binding as compared to D-2 receptor binding is believed to confer the therapeutic advantage of avoiding troublesome and potentially irreversible neurological side effects associated with D-2 receptor occupancy. […]
(§2) Polypropylene incubation tubes received 100 µl of the individual test compounds at various concentrations dissolved or suspended in 0.05 M Tris, pH 7.4 containing 4 mg/ml methylcellulose, 100 µl of a solution of^3H-SCH 23390 in Tris buffer (final reaction mixture concentration =0.3 nM) or 100 µl of a solution of ^3H-spiperone in Tris buffer (final concentration = 0.2 nM) and 800 µl of tissue suspension (ca. 3 mg/assay). […] The filters were-transferred to scintillation vials, equilibated with 10 ml of scintillant (Scintosol, Isolab, Inc.) for 16 hours at 25°C and the radioactivity determined in a liquid scintillation counter. […]

[2] = molecular target: T2, D-2 receptor (Rattus norvegicus, UniProt P61169); assay: Competitive inhibition assay, displacement of 3H-spiperone; type: binding; conditions: 3H-spiperone 0.2 nM; rat striatal tissue homogenate; 37°C for 15 minutes
T2 construct: Striatal tissue was excised, pooled, and homogenized; from tissue; host or cells: rat striatum (Sprague-Dawley), washed membrane pellet
Source text: as §1, §2

T2 sequence (P61169 whole entry): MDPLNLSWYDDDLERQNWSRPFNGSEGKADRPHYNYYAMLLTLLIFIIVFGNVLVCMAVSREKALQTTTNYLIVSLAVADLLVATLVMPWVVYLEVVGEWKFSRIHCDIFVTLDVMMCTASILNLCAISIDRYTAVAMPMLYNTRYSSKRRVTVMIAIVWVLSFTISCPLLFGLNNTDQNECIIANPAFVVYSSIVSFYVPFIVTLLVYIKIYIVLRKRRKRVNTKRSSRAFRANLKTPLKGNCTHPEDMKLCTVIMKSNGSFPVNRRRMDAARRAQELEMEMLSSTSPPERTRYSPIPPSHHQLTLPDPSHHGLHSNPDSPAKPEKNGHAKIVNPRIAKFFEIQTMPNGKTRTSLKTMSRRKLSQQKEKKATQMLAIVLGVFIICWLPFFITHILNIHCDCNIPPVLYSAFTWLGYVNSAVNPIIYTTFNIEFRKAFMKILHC
T1 sequence (P18901 whole entry): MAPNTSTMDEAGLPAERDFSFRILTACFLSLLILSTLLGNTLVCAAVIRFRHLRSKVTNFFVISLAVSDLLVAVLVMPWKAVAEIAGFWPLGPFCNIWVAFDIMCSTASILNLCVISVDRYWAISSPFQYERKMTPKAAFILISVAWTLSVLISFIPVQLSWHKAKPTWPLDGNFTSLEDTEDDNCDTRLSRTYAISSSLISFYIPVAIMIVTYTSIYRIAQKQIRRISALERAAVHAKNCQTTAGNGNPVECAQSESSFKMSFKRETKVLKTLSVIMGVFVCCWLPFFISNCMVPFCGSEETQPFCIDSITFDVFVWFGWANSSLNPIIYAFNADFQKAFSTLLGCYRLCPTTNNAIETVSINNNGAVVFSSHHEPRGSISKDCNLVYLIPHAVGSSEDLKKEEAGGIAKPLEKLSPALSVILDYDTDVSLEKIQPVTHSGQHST

| SMILES | Ki [1] | Ki [2] |
| --- | --- | --- |
| Oc1cc2c(cc1Cl)CCN[C@H]1Cc3ccccc3[C@H]21 (racemic) | 7 nM | 1580 nM |
| CN1CCc2cc(Cl)c(O)cc2[C@H]2c3ccccc3C[C@@H]21 (racemic) [Trans-6-methyl-5,6,7,7a,8,12b-hexahydro-2-hydroxy-3-chloro-benz[d]indeno-[2,1-b]azepine] | 7 nM | 12000 nM |
